Test results reported in patent US20200054651A1, “COMPOSITIONS AND METHODS FOR MODULATING PPP2R1A” (The Regents of the University of California, priority 2017, published 2020).

Legend:
[1] = biological target: T1, C328 on vimentin (Homo sapiens, UniProt P08670); assay: Competitive isoTOP-ABPP in 231MFP proteomes in vitro; assay type: binding; conditions: 10 μM, in vitro treatment of 231MFP proteomes
T1 construct: in vitro treatment of 231MFP breast cancer cell proteomes with withaferin A; endogenous in cells; host or cells: 231MFP breast cancer cells
Description: IsoTOP-ABPP studies were performed using the methods described in “Nature 534(7608), 570-574 (2016)” by Backus K. M., et al. and “Nature 468(7325), 790-795 (2010)” by Weerapana E., et al. Proteome samples diluted in PBS were treated with Withaferin A or vehicle for 30 minutes at 37° C. Then, IAyne (iodoacetamide-alkyne) labeling was performed for 1 hour at room temperature. CuAAC was used by sequential addition of tris(2-carboxyethyl)phosphine (1 mM), tris[(1-benzyl-1H-1,2,3-triazol-4-yl)methyl]amine (34 μM), copper (II) sulfate (1 mM), and biotin-linker-azide where the linker was functionalized with a TEV protease recognition sequence along with an isotopically light or heavy valine for treatment of control or treated proteome, respectively. After click reactions, proteomes were precipitated by centrifugation at 6500×g, washed in ice-cold methanol, combined in a 1:1 control/treated ratio, washed again, then denatured and re-solubilized by heating in 1.2% SDS/PBS to 80° C. for 5 minutes. Insoluble components were precipitated by centrifugation at 6500×g and soluble proteome was diluted in 0.2% SDS/PBS (5 ml). Labeled proteins were bound to avidin-agarose beads (170 μl re-suspended beads/sample) while rotating overnight at 4° C. Bead-linked proteins were enriched by washing three times each in PBS and water, then re-suspended in urea/PBS (6 M), reduced in TCEP (1 mM), alkylated with iodoacetamide (18 mM), then washed and re-suspended in urea/PBS (2 M), and finally trypsinized overnight with 0.5 μg/μl sequencing grade trypsin. Tryptic peptides were eluted off. Beads were washed in PBS (3 times) and water (3 times), washed in TEV buffer solution (water, TEV buffer, 100 μM dithiothreitol), and re-suspended in buffer with Ac-TEV protease and then incubated overnight. Peptides were diluted in water, acidified with formic acid (1.2 M), and prepared for analysis.
Peptides from all proteomic experiments were pressure-loaded onto an Agilent 600 series RP-HPLC system equipped with a capillary tubing (250 mm) packed with Aqua C18 reverse-phase resin (4 cm). The system was previously equilibrated with a gradient (0% B to 100% B over 10 minutes, 100% B for 5 minutes, then 0% B for 5 minutes; buffer A: 95:5 water:acetonitrile, 0.1% formic acid; buffer B: 80:20 acetonitrile:water, 0.1% formic acid). The samples were then attached using a MicroTee PEEK 360 μm fitting to a laser pulled column (13 cm) packed with Aqua C18 reverse-phase resin (10 cm) and strong-cation exchange resin (3 cm) for isoTOP-ABPP studies. Samples were analyzed using an Q Exactive Plus mass spectrometer using a 5-step Multidimensional Protein Identification Technology (MudPIT) program. […]

[2] = In vivo tolerability during xenograft treatment; conditions: daily treatment for >30 days, 50 mg/kg ip
[3] = test system: 231MFP tumor xenograft; assay: 231MFP tumor xenograft growth; assay type: in vivo, immune-deficient SCID mice; conditions: 50 mg/kg ip, daily, initiated 15 days after tumor xenograft injection

T1 sequence (P08670 whole entry): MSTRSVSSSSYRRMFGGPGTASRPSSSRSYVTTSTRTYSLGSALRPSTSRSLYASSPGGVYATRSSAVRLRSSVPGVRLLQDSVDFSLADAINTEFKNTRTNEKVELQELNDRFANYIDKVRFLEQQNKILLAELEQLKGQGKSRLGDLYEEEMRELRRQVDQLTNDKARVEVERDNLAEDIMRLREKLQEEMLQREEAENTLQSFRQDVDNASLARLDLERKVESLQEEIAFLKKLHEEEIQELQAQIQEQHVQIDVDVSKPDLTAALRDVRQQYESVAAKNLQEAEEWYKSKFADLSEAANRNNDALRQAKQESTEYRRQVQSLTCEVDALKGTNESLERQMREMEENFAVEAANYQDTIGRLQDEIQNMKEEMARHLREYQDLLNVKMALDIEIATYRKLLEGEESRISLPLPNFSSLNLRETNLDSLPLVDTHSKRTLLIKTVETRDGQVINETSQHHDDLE

SMILES	light to heavy ratio, C328 on vimentin [1]	overt toxicity or body weight loss [2]	231MFP tumor xenograft growth [3]
CC1=C(CO)C(=O)O[C@@H]([C@@H](C)[C@H]2CC[C@H]3[C@@H]4C[C@H]5O[C@]56[C@@H](O)C=CC(=O)[C@]6(C)[C@H]4CC[C@]23C)C1 [withaferin A, reference compound]	1.0		
O=C(CCl)N(Cc1ccccc1)c1ccc2c(c1)OCCO2 [JNS 1-40, N-benzyl-2-chloro-N-(2,3-dihydrobenzo[b][1,4]dioxin-6-yl)acetamide]		did not cause any overt toxicity or body weight loss	significantly attenuated tumor growth
